By IC50 is commonly meant the concentration at which inhibition is half-maximal.

Results on six molecules are retold here after patent US20040132807A1, “Aurones as telomerase inhibitors” (priority 2001, published 2004).

The target of the assay is T1, telomerase enzyme (Homo sapiens, UniProt O14746).
T1 construct: telomerase enzyme diluted in a buffer
T1 sequence (O14746 whole entry): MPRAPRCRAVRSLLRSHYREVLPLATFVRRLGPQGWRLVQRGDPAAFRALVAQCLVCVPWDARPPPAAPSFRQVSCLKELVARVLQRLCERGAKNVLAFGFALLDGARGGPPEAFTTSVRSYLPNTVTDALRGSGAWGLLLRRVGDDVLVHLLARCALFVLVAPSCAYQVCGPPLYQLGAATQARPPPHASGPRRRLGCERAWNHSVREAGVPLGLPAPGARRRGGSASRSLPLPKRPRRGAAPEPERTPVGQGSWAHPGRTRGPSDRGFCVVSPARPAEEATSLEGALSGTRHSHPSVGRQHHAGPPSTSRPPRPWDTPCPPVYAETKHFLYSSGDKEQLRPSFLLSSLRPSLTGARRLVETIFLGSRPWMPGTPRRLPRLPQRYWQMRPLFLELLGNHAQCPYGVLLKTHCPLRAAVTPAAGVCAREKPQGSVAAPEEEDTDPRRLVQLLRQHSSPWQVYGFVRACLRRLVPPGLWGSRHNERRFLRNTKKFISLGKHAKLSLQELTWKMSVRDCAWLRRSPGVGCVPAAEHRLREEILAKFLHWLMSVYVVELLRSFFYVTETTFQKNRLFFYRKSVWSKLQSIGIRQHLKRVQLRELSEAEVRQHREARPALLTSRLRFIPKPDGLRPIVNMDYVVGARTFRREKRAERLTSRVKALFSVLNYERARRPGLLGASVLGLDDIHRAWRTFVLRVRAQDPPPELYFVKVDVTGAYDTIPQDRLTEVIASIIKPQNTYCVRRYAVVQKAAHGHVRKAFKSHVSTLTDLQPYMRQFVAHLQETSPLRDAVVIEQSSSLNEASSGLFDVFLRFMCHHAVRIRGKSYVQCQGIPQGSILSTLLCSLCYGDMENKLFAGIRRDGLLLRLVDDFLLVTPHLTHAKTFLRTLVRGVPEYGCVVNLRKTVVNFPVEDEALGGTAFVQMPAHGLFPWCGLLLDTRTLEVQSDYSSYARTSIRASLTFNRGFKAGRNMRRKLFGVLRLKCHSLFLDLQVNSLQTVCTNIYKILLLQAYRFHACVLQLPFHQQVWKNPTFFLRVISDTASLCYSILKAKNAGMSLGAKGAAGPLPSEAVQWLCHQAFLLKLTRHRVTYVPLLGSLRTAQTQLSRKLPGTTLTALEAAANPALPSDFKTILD
As to the kind of experiment: Flash Plate-based telomerase activity assay. The class given is biochemical. To be noted: two hours incubation at 37°, biotinylated oligo primer, radiolabeled probe, streptavidin flash plate; read-out: IC50 (telomerase inhibitory activity). As to the method: The telomerase activity of the compounds has been evaluated using a Flash Plate-based assay.
The assay mixture is constituted of:
telomerase enzyme diluted in a buffer, the composition of which has been selected to maintain the enzyme activity stable along the duration of the assay.
dNTPs, deoxynucleotides 5′-triphosphate.
biotinylated oligo as primer.
increasing concentrations of test compounds/positive control.
After two hours of incubation at 37° degrees the telomeric repeats added by telomerase are evaluated by hybridization in solution with a 3′-radioactive labeled short oligonucleotide probe. The extent of hybridization is then quantitated by transferring the reaction mixture in a streptavidin-coated flash plate, where the binding between biotin and streptavidin occurs. The telomerase activity is proportional to the radioactivity measured and the inhibitory activity of the compounds is evaluated as IC50 using the Sigma Plot fit program.
The IC50 values for the compounds of the present invention were determined according to the above-described method.
As to `O=C1c2ccc(O)c(O)c2OC1Cc1ccc(O)c(O)c1` (stereo not drawn) [Compound 89, 2-(3,4-dihydroxybenzyl)-6,7-dihydroxy-1-benzofuran-3(2H)-one], the IC50 was 7 µM.

For `O=C1C(=Cc2ccc3c(c2)OCO3)Oc2c1ccc(O)c2O` [Compound 2, 2-(1,3-benzodioxol-5-ylmethylene)-6,7-dihydroxy-1-benzofuran-3(2H)-one], the IC50 came out at 13 µM.

Take `O=C1C(=Cc2ccc(O)cc2O)Oc2c1ccc(O)c2O` [Compound 4, 2-(2,4-dihydroxybenzylidene)-6,7-dihydroxy-1-benzofuran-3(2H)-one]: the IC50 worked out at 1.5 µM.

`O=C1C(=Cc2ccc(O)c(O)c2)Oc2c1ccc(O)c2O` [Compound 1, 2-(3,4-dihydroxybenzylidene)-6,7-dihydroxy-1-benzofuran-3(2H)-one]: the IC50 is 0.3 µM.

Consider `COc1ccc(C=C2Oc3c(ccc(O)c3O)C2=O)cc1OC` [Compound 3, 2-(3,4-dimethoxybenzylidene)-6,7-dihydroxy-1-benzofuran-3(2H)-one], for which the IC50 worked out at 11 µM.

For the molecule `O=C1C(=Cc2ccc(Cl)c(Cl)c2)Oc2c1ccc(O)c2O` [Compound 5, 2-(3,4-dichlorobenzylidene)-6,7-dihydroxy-1-benzofuran-3(2H)-one], the half-inhibitory concentration (IC50) stood at 8 µM.
